Measured values: US10806721B2, “Formulation for use in the treatment of uremic pruritus” (DRUG DELIVERY SOLUTIONS, priority 2016, dated 2020)

How the values were obtained:
[1] = system: reconstructed human epidermis (RHE); test: ELISA of carbamoylated proteins in reconstructed human epidermis exposed to urea from the stratum corneum side (Example 3); type: cell-based; conditions: for ELISA reading, carbamoylated proteins, Day 3: harvested day 3; for ELISA reading, carbamoylated proteins, Day 6: harvested day 6; for carbamylation of proteins (result in words): exposure on top of RHE skin samples, within 6 days
Experimental: (§1) To further investigate possible carbamylation in human skin in UP (Uremic Pruritus) the inventors conducted a series of studies in the reconstructed human epidermis (RHE) model. The 4 cm^2 large skin samples were delivered from Episkin® in 6 well plates each with a volume of 1 ml. The experiments were carried out in 18-25 days old skin samples. RHE is a standardized technology used to investigate metabolic, toxic and inflammatory reactions in the skin (13). The skin samples were developed from human epidermal stem cells. They were developed on a […] net with an underlying growth medium. The RHE contains all the different cell layers in the epidermis, including stratum corneum. The samples are kept at 37° C. in a 5% CO2 atmosphere. They are handled under sterile conditions. New growth medium is added daily. The 4 cm^2 large skin samples were ready for use after 18 days' development; a time span similar to the normal turnover of human skin.
(§2) 12 individual experiments were carried out including 2 controls. Growth media (1 ml) were replaced daily according to the standard protocol. 6 of the samples were harvested at day 3 and 6 at day 6 and immediately frozen at minus 80° C. until protein analysis. Parts of all samples were sent for histologic examination.
(§3) The following exposures (individual experiments), all from stratum corneum side of the skin sample, were made.
1. Controls: Left untreated.
(§4) 2. Urea in an aqueous solution in the same amount—calculated as mg/cm^2 skin—, as in UP. This calculated amount corresponds to 0.3 mg/cm^2, based on calculation of the sum of the average serum levels of urea in uremic patients, urea from sweat, and contribution from active transport of urea into the cells in epidermis. The addition of urea is done by the addition of 200 μl of a solution of 6 mg urea/ml) to the surface of the skin samples.
(§5) 3. As under above item 2 but in double amount (0.6 mg/cm^2).
(§6) 4. As under above item 3 and added 200 μl of a 1% histidine solution.
(§7) 5. 5% commercially available urea cream dosed as intended human use
6. 10% commercially available urea cream dosed as intended human use
The skin samples harvested at day 3 were exposed day 0 to 2-6 and day 1 to 2-4. (tabl. 1)
The skin samples is harvested at day 6 were exposed as above and further day 3 to 2-6. In agreement with Table 1 the aqueous urea solution was absorbed immediately through the skin samples. The two creams left a deposit on top of the skin and were therefore only applied twice; day 0 and day 3 (for the 6-day experiment). Daily exposures were abstained to minimize the risk of infection. […] Further the urea concentrations from experiments 2, 3 and 4 harvested day 6 may have been relatively low due to only one supplementary exposure day 3.
(§8) Protein analysis was made according to a previous developed method (14). Carbamoylated proteins from the skin samples were coated to ELISA wells and quantified using a using a primary polyclonal anti-homocitrullin antibody and a secondary labelled polyclonal detection antibody.

[2] = system: reconstructed human epidermis (RHE); test: Histological examination of reconstructed human epidermis exposed to urea (Example 3); type: cell-based
Experimental: as §1, §2, §3, §4, §5, §6, §7
6. 10% commercially available urea cream dosed as intended human use […]

[3] = system: Human Reconstructed Epidermis (RHE); test: ELISA of carbamoylated proteins in RHE with urea in the growth medium (Example 4); type: cell-based
From the text: as §8
The same method as described in example 3 was used. The studies were based on the use of the Human Reconstructed Epidermis (RHE) model purchased from Episkin®. Three experiments were made in duplicate including 2 controls. Growth media (1 ml) with and without additions (see below) were replaced daily accordingly to the standard protocol. In contrast to Example 3 the urea exposure was made by addition of urea to the growth medium. Experiment 1 corresponds to the two controls; experiment 2 was with growth medium with 4 mg/ml urea; experiment 3 was with growth medium with 4 mg/ml urea and with addition of 5 mg […] cream with 2% amino acids applied on top of RHE skin surface at Day 0 and Day 3. All 6 skin samples looked macroscopically healthy when they were harvested after 6 days. There were no signs of infection or necrosis. They were immediately frozen at minus 80° C. until protein analysis. Parts of all samples were sent for histological examination.
Protein carbamoylated was investigated using the same method as in Experiment 3.

[4] = Degradation of histidine in the cream of Example 1 exposed to urea; type: physicochemical; conditions: cream of Example 1 with 10 w/w % urea; six weeks at 40° C.
Experimental: The degradation process was followed over time and after six weeks at 40° C. only 20% histidine was left in the cream having 10 w/w % urea.

[5] = Urea conc. as in UP (high) 12 mg, 0.6 mg/cm^2 on skin surface
[6] = Urea conc. as in UP (moderate) 6 mg, 0.3 mg/cm^2 on skin surface
[7] = 0.5% histidine added to urea conc. as in UP (high) 12 mg

Row | Compound | ELISA reading, carbamoylated proteins, Day 3 [1, 5] [absorbance units] | ELISA reading, carbamoylated proteins, Day 6 [1, 5] [absorbance units] | ELISA reading, carbamoylated proteins, Day 3 [1, 6] [absorbance units] | ELISA reading, carbamoylated proteins, Day 6 [1, 6] [absorbance units] | carbamylation of proteins (result in words) [1] | histological changes (edema and disruptions in stratum corneum, premature cell death in stratum spinosum) ([2]; harvested day 3) | histological changes ([2]; harvested day 6) | Elisa reading, carbamoylated proteins, average of two experiments ([3]; GM + 4 mg urea/ml, harvested after 6 days) [absorbance units] | level of protein carbamylation (result in words) ([3]; growth medium with 4 mg/ml urea, 6 days) | histidine left in the cream [4] [%] | ELISA reading, carbamoylated proteins, Day 3 [1, 7] [absorbance units] | ELISA reading, carbamoylated proteins, Day 6 [1, 7] [absorbance units] | effect on urea-induced edema and cell death (histology) ([2]; histidine added to urea 0.6 mg/cm^2, harvested both day 3 and day 6)
1 | NC(N)=O [Urea] | 0.316 | 0.475 | 0.377 | 0.368 | could be demonstrated | significant changes | recovered to a certain extent | 0.68 | highest level of carbamylation | – | – | – | –
2 | N[C@@H](Cc1c[nH]cn1)C(=O)O [histidine] | – | – | – | – | prevented this carbamylation | – | – | – | – | 20 | 0.312 | 0.321 | can counteract this effect
